Assay results reported in US7241905B2, “Dioxin analogues and methods and kits for searching out dioxins-decomposing organisms or enzymes or dioxin-decomposing enzyme genes” (Forestry and Forest Products Research Institute, priority 2001, dated 2007).

Columns and labels:
Type in all cases: cell-based
Fomitopsis palustris [1] = assay: Degradation of dioxin in fungal culture, measured with a dioxin immunoassay kit; details: F. palustris culture (negative control fungus), 0.5 ppm, cultured 20 days, attributed to non-specific binding to fungal cells
Description: (§1) Pleurotus pulumonairus, which has proven to cause the most intense fluorescence in Examples 3 and 4, was examined for its ability to degrade dioxin.
(§2) As in Examples 3 and 4, Pleurotus pulumonairus was cultured in a culture medium containing glucose and peptone and, on day 7, 2,3,7,8-tetrachlorodioxin was added to the medium at a final concentration of 0.5 ppm. The fungus was subsequently cultured for 20 days. After the culturing period, the culture medium containing the fungus was freeze-dried and was subjected to extraction by refluxing with hexane. Hexane was then removed by distillation and the remaining culture was diluted 200-fold with 200 ml methanol containing 100 ppm Triton X-100. Using a High Performance Dioxin Immunoassay Kit (Cape Technologies, United States) according to the manufacturer's instruction, the concentration of dioxin was measured to determine the degradation rate of dioxin. A control shown in Table 2 is the above-described culture medium with only 2,3,7,8-tetrachlorodioxin added. Fomitopsis palustris was used as a negative control.

Pleurotus pulumonairus [2] = assay: as above; details: P. pulumonairus culture; 0.5 ppm; cultured 20 days; control medium without fungus 0%
Description: as §1, §2

Coriolus versicolor = assay: Screening of wood-rotting fungi for degradation of the esculetin-type dioxin analogue (fluorescence of metabolites); details: C. versicolor culture; substrate 1 ppm; day 7; excitation 350 nm, emission 450 nm; control medium without fungus 1370
Description: (§3) Different species of wood-rotting fungi (i.e., Grammothele fuligo WD844, Phanerochaete crassa WD1694, Phanerochaete chrysosporium ME446, Fomitopsis palustris, Coriolus versicolor, and Pleurotus pulumonairus) were used as test subjects and were screened for the ability to degrade the dioxin analogue obtained in Example 1 (esculetin-type analogue).
(§4) Each subject fungal species, which had been pre-cultured on potato agar and stamped out of the agar using a cork borer, was inoculated onto 10 ml modified NS medium (3% glucose, 1% peptone, inorganic salts, pH 5.0) in a 100 ml Erlenmeyer flask and was cultured for 5 to 7 days at 28° C. Subsequently, a 100 μl DMSO solution containing the substrate (esculetin-type dioxin analogue obtained in Example 1) at a final concentration of 1 ppm was added to the culture. The solution was added so that the concentration of DMSO in the medium was 1%. Samples of the culture solution were collected at predetermined time intervals (i.e., 1, 3, and 5 days after the addition of the substrate). To a 100 μl portion of each sample, 1.9 ml of an alkaline buffer (100 mM glycine, 100 mM sodium hydroxide, pH 10.0) was added. The sample mixtures were then exposed to long-range UV light (365 nm) as excitation light and were visually screened for those emitting fluorescence. On day 7, the samples were irradiated with excitation light of 350 nm and, using a fluorescence spectrophotometer, the intensity of fluorescence was measured at 450 nm. A control shown in Table 1 is the above-described culture medium with only dioxin analogue (esculetin-type) added.

Fomitopsis palustris [3] = assay: as above; details: F. palustris culture; substrate 1 ppm; day 7; excitation 350 nm, emission 450 nm; control medium without fungus 1370
Description: as §3, §4

Grammothele fuligo WD844 = assay: as above; details: G. fuligo WD844 culture; substrate 1 ppm; day 7; excitation 350 nm, emission 450 nm; control medium without fungus 1370
Description: as §3, §4

[4] = tested on: Phanerochaete chrysosporium ME446; assay: as above; details: P. chrysosporium ME446 culture; substrate 1 ppm; day 7; excitation 350 nm, emission 450 nm; control medium without fungus 1370
Description: as §3, §4

[5] = tested on: Phanerochaete crassa WD1694; assay: as above; details: P. crassa WD1694 culture; substrate 1 ppm; day 7; excitation 350 nm, emission 450 nm; control medium without fungus 1370
Description: as §3, §4

Pleurotus pulumonairus [6] = assay: as above; details: P. pulumonairus culture; substrate 1 ppm; day 7; excitation 350 nm, emission 450 nm; control medium without fungus 1370
Description: as §3, §4

Pleurotus pulumonairus [7] = assay: Screening of wood-rotting fungi for degradation of the naphthalene-type dioxin analogue (visual fluorescence); details: P. pulumonairus culture; substrate 1 ppm; samples 1, 3 and 5 days after addition; UV 365 nm; compared with the other five fungi
Description: as §3, with “2 (naphthalene-type” for “1 (esculetin-type”
as §4, with “pH5.0)” for “pH 5.0)”, “naphthalene-type” for “(esculetin-type”, “2” for “1)”, “μportion” for “μl portion”, “pH10.0)” for “pH 10.0)”, “fluorescence.” for “fluorescence. On day 7, the samples were irradiated with excitation light of 350 nm and, using a fluorescence spectrophotometer, the intensity of fluorescence was measured at 450 nm. A control shown in Table 1 is the above-described culture medium with only dioxin analogue (esculetin-type) added.”

## Clc1cc2c(cc1Cl)Oc1cc(Cl)c(Cl)cc1O2 [2,3,7,8-tetrachlorodioxin]
Fomitopsis palustris [1]
  Degradation rate: 9%
Fomitopsis palustris [1]; listed as dioxin
  Degradation rate: 9%
Pleurotus pulumonairus [2]
  Degradation rate: 31%

## Cc1cc(=O)oc2cc3c(cc12)Oc1cc(Cl)c(Cl)cc1O3 [Example 1]
Coriolus versicolor
  Fluorecsence intensity: 1601
Fomitopsis palustris [3]
  Fluorecsence intensity: 1314
Grammothele fuligo WD844
  Fluorecsence intensity: 1639
[4]
  Fluorecsence intensity: 1619
[5]
  Fluorecsence intensity: 1419
Pleurotus pulumonairus [6]
  Fluorecsence intensity: 2203

## Clc1cc2c(cc1Cl)Oc1cc3ccccc3cc1O2 [Example 2]
Pleurotus pulumonairus [7]
  Fluorescence emission, visually screened: most intense fluorescence emission
